Data from patent publication US9260425B2 (Genetech, Inc., priority 2011, dated 2016).

Tests used:
[1] = biological target: Pim-1 (Homo sapiens (Human), UniProt P11309); experiment: Pim kinase binding activity assay (Example 901), PIM-1 enzyme, Caliper microfluidic peptide phosphorylation; assay type: biochemical; conditions: 20 pM PIM-1, 10 μM ATP, 1 μM FAM-peptide, 90 minutes at room temperature
Procedure, shortened: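 The readout was microfluidic mobility-shift separation of a FAM-tagged Pim-specific peptide, excited at 488 nm and read at 530 nm, with Ki calculated from percent conversion. Reactions held 20 pM PIM-1, 1 μM peptide and 10 μM ATP in pH 7.2 HEPES/MgCl2/DTT buffer, ran 90 min at room temperature and were stopped with EDTA.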

[2] = system: BaF3 parental cells; experiment: In vitro cell proliferation potency assay, BaF3 parental line with IL-3 (Cell Titer Glo); assay type: cell-based, murine; conditions: Mus musculus, 2 ng/mL mIL-3, incubated overnight, read-out: Prolif. BaF3 IL3 (IC50)
Procedure: (§1) In Vitro Cell Proliferation Potency Assays
(§2) BaF3 parental line was obtained from the DSMZ repository. BaF3 lines transfected with PIM-1 or PIM-2 were generated. Mouse IL-3 was purchased from R&D Systems. G418 was purchased from Clontech. Media for BaF3 parental line contained RPMI, 10% FBS, 2 mM L-Glutamine, 2 ng/mL mIL-3. Media for BaF3 PIM1 & 2 lines contained RPMI, 10% FBS, 2 mM L-Glutamine, […]. Media for MM1.S (multiple myeloma cells) line contained RPMI, 10% FBS, 2 mM L-Glutamine.
(§3) BaF3, a murine interleukin-3 dependent pro-B cell line, parental cells, BaF3 PIM1 cells, BaF3 PIM-2 cells, and MM1.S (multiple myeloma) cells were seeded at 2 k/well, 5 k/well, 5 k/well, and 10 k/well respectively, in a 384-well plate, at 45 μL/well. Test compound was added at 5 μL/well. BaF3 cells (parental and transfected) were incubated overnight, while MM1.S cells were incubated for 72 hours at 37° C., 5% CO2. Cell Titer Glo Reagent (Promega) was added at 50 μL/well, the plates were incubated for 30 minutes, and their luminescence read on an HT Analyst. IC50/EC50 values for the test compound were calculated.

[3] = system: BaF3 PIM1 cells; experiment: In vitro cell proliferation potency assay, BaF3 line transfected with PIM-1 (Cell Titer Glo); assay type: cell-based, murine; conditions: Mus musculus, incubated overnight, read-out: Prolif. BaF3 PIM-1 (IC50)
Procedure: as §1
as §2, with “BaF3 lines transfected with PIM-1 or PIM-2 were generated.” left out
as §3

[4] = system: MM1.S (multiple myeloma) cells; experiment: In vitro cell proliferation potency assay, MM1.S cells (Cell Titer Glo); assay type: cell-based; conditions: Homo sapiens, 72 hours, read-out: Prolif. MM1S ATP (EC50)
Procedure: as §1, §2, §3

Pim-1, sequence (P11309 whole entry): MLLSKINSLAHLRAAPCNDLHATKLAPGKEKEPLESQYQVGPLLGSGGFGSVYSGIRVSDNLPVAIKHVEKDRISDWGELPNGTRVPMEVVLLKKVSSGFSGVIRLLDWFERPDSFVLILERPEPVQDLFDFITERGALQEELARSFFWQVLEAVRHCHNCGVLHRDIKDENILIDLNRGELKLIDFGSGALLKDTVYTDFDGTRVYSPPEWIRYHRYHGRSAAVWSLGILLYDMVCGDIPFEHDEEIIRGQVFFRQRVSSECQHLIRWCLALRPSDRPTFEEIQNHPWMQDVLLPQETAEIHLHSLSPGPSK

| Compound | Ki [1] | IC50 [2] | IC50 [3] | EC50 [4] |
| --- | --- | --- | --- | --- |
| OCCN1CCCN(c2cccc(-c3n[nH]c4cnc(-c5cccnc5)cc34)n2)CC1 [Example 357, 2-(4-(6-(5-(pyridin-3-yl)-1H-pyrazolo[3,4-c]pyridin-3-yl)pyridin-2-yl)-1,4-diazepan-1-yl)ethanol] | 0.26 nM | 4900 nM | 709 nM | 244 nM |
| N[C@H]1CCCN(c2cccc(-c3n[nH]c4cnc(-c5cccnc5)cc34)n2)C1 [Example 161, (S)-1-(6-(5-(pyridin-3-yl)-1H-pyrazolo[3,4-c]pyridin-3-yl)pyridin-2-yl)piperidin-3-amine] | 0.0411 nM | 1400 nM | 731 nM | 281 nM |
| N[C@H]1CCCN(c2cccc(-c3n[nH]c4cnc(-c5cccnc5)cc34)n2)CC1 [Example 248, (S)-1-(6-(5-(pyridin-3-yl)-1H-pyrazolo[3,4-c]pyridin-3-yl)pyridin-2-yl)azepan-4-amine] | 0.048 nM | 1600 nM | 336 nM | 201 nM |
| Cn1cc(-c2cc3c(-c4cccc(N5CCCC(C)(O)C5)n4)n[nH]c3cn2)cn1 (stereo not shown) [Example 383, 3-methyl-1-(6-(5-(1-methyl-1H-pyrazol-4-yl)-1H-pyrazolo[3,4-c]pyridin-3-yl)pyridin-2-yl)piperidin-3-ol] | 0.078 nM | 1300 nM | 110 nM | 170 nM |
| N[C@@H]1CCCN(c2cccc(-c3n[nH]c4cnc(-c5cccnc5)cc34)n2)CC1 [Example 249, (R)-1-(6-(5-(pyridin-3-yl)-1H-pyrazolo[3,4-c]pyridin-3-yl)pyridin-2-yl)azepan-4-amine] | 0.02 nM | 2500 nM | 518 nM | 191 nM |
| Cc1ccc(-c2n[nH]c3cnc(-c4cccnc4)cc23)nc1N1CC[C@@H](N)C1 [Example 316, (R)-1-(3-methyl-6-(5-(pyridin-3-yl)-1H-pyrazolo[3,4-c]pyridin-3-yl)pyridin-2-yl)pyrrolidin-3-amine] | 0.0549 nM | 1000 nM | 62.8 nM | 114 nM |
| C=Cc1ccc(-c2n[nH]c3cnc(-c4cccnc4)cc23)nc1N1CCC[C@H](N)C1 [Example 307, (S)-1-(6-(5-(pyridin-3-yl)-1H-pyrazolo[3,4-c]pyridin-3-yl)-3-vinylpyridin-2-yl)piperidin-3-amine] | 0.014 nM | 1400 nM | 67.1 nM | 141 nM |
| CCn1cc(-c2cc3c(-c4cccc(N5CCC[C@H](NC)C5)n4)n[nH]c3cn2)cn1 [Example 377, (S)-1-(6-(5-(1-ethyl-1H-pyrazol-4-yl)-1H-pyrazolo[3,4-c]pyridin-3-yl)pyridin-2-yl)-N-methylpiperidin-3-amine] | 0.08 nM | 5300 nM | 63.7 nM | 230 nM |
| NC1CCN(c2cncc(-c3cc4c(-c5ccccc5F)n[nH]c4cn3)n2)CC1 [Example 147, 1-(6-(3-(2-fluorophenyl)-1H-pyrazolo[3,4-c]pyridin-5-yl)pyrazin-2-yl)piperidin-4-amine] | 0.121 nM | 3900 nM | 368 nM | 60.4 nM |
| CC(C)Cn1cc(-c2cc3c(-c4cccc(N5CCNCC5)n4)n[nH]c3cn2)cn1 [Example 381, 5-(1-isobutyl-1H-pyrazol-4-yl)-3-(6-(piperazin-1-yl)pyridin-2-yl)-1H-pyrazolo[3,4-c]pyridine] | 0.057 nM | 2200 nM | 129 nM | 228 nM |
